Test results taken from publication PMC12668310, “High‐Throughput Synthesis and Screening of a Cyanimide Library Identifies Selective Inhibitors of ISG15‐Specific Protease mUSP18” (Angewandte Chemie (International Ed. in English), 2025).
Where two headings read alike, the source gives them in different places.

Target: T1, mUSP18 (Mus musculus, UniProt Q9WTV6)
T1 construct: (46-368); His-tag (N); made in house
T1 sequence (Q9WTV6 46-368): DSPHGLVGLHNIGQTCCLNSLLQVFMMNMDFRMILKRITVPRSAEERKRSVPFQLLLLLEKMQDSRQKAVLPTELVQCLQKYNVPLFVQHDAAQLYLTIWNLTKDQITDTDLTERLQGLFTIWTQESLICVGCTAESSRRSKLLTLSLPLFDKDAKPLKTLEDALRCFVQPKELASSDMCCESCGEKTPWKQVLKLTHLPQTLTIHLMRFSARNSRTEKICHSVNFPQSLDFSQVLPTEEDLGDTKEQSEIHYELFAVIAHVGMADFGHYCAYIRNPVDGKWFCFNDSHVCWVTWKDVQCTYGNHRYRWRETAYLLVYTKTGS
Assay: High-throughput screening, ISG15ct-RhoMP, single dose 1.25 µM
Assay type: biochemical, murine
Conditions: for inhibition at 1.25 µM: mUSP18 %inhibition

[1] = carboxylic acid (CA) building block alone, read-out: %inh CA only
[2] = carboxylic acid (CA) with coupling reagents DIC/HOBT, read-out: %inh CA + DIC/HOBT

Compound | inhibition at 1.25 µM [1] [%] | inhibition at 1.25 µM [2] [%] | inhibition of mUSP18 by individual CA's and coupling reagents (screened with and without DIC/HOBt)
O=C(O)c1cnc(-c2cccs2)s1 [CA192] | 11.7 | 0.91 | –
O=C(O)CC1=NN(c2ncc(C(F)(F)F)cc2Cl)C(=O)C1 [CA193] | 5.93 | 4.27 | –
O=C(O)c1cccc(COc2cccc(F)c2)c1 [CA194] | 9.72 | 3.17 | –
O=C(O)c1occc1COc1ccccc1 [CA195] | 11 | 6.35 | –
Cc1nc(-c2cnn(C)c2)sc1C(=O)O [CA196] | 6.54 | 3.44 | –
O=C(O)C1CCN(C(=O)CCOc2ccccc2)CC1 [CA197] | 4.78 | 1.19 | –
Cn1cc(S(=O)(=O)N2CCCC(C(=O)O)C2)cn1 (centres unmarked) [CA198] | 0.78 | 2.3 | –
O=C(O)c1cc(S(=O)(=O)N2CCOCC2)c[nH]1 [CA199] | 1.4 | 2.51 | –
COc1ccc(OCc2cc(C)on2)c(C(=O)O)c1 [CA200] | 0.4 | 3.72 | –
O=C(O)C1CC(=O)N(CCN2CCOCC2)C1 (centres unmarked) [CA201] | 1.58 | 1.88 | –
O=C(O)Cc1cccc(OCc2cccnc2)c1 [CA202] | 0.44 | 3.16 | –
CN(Cc1cccnc1)S(=O)(=O)c1cc(C(=O)O)n(C)c1 [CA203] | 0.22 | 4.09 | –
Cc1n[nH]c(C)c1S(=O)(=O)N1CCC(C(=O)O)CC1 [CA204] | -0.12 | 3.04 | –
Cc1ccc(-c2cc(C(=O)O)[nH]n2)o1 [CA205] | 0.0344 | 4.51 | –
O=C(O)c1occc1CN1CCOCC1 [CA206] | 1.55 | 4.49 | –
O=C(O)c1ccc(COc2ccccc2Br)cc1 [CA207] | -2.79 | 10.7 | –
O=C(O)c1cccc(-c2cnco2)c1 [CA208] | 3.78 | 11.1 | –
O=C1CCC(=O)N(c2ccc(C(=O)O)cc2)N1 [CA209] | -2.74 | 14.4 | –
O=C(O)c1coc(-c2cccnc2)n1 [CA210] | 21 | 4.16 | –
O=C(O)c1ccc(=O)n(Cc2ccccc2)n1 [CA211] | 14.5 | 0.49 | –
Cc1nc(-c2cccnc2)sc1C(=O)O [CA212] | 10.5 | 0.87 | –
CN1CCN(C(=O)c2ccccc2C(=O)O)CC1 [CA213] | 9.22 | -1.04 | –
Cc1cc(C(=O)O)c(C)n1-c1ccon1 [CA214] | 6.76 | 33.1 | –
O=C(O)c1cccc(-c2ncn[nH]2)c1 [CA215] | 8.13 | 1.55 | –
O=C(O)c1ccnn1C1CCOCC1 [CA216] | 6.01 | 2.43 | –
COc1ccc(C(=O)O)cc1S(=O)(=O)N1CCCCCC1 [CA217] | 6.36 | 0.58 | –
Cn1nc(C(=O)N2CCOCC2)cc1C(=O)O [CA218] | 7.94 | 0.97 | –

Compound | inhibition at 1.25 µM [1] [%] | inhibition at 1.25 µM [2] [%] | inhibition of mUSP18 by individual CA's and coupling reagents (screened with and without DIC/HOBt)
Cc1nn(C2CCOCC2)c(C)c1C(=O)O [CA219] | 7.18 | -0.2 | –
O=C(O)C1CCOC2(CCC2)C1 (centres unmarked) [CA220] | 7.46 | -0.86 | –
O=C(O)c1cnn(CCN2CCCC2)c1 [CA221] | 5.71 | 3.5 | –
O=C(O)C1(c2cccs2)CC1 [CA222] | 3.38 | 3.8 | –
O=C(O)c1cc(-c2ccco2)on1 [CA223] | 2.35 | 4.1 | –
O=C(O)c1ccc(Cn2cc(Br)cn2)o1 [CA224] | 3.05 | 5.82 | –
O=C(O)C(c1ccccc1)n1cnnn1 (centres unmarked) [CA225] | -0.48 | -0.48 | –
Cc1csc(N2CCCC(C(=O)O)C2)n1 (centres unmarked) [CA226] | 2.29 | 3.37 | –
CC(C(=O)O)n1nc(C(F)(F)F)cc1C1CC1 (centres unmarked) [CA227] | 2.61 | 2.83 | –
O=C(O)C1CCCN1C(=O)Cc1ccccc1 (centres unmarked) [CA228] | 2.77 | 4.1 | –
O=C(O)CC1(n2cccc2)CCCCC1 [CA229] | 3.52 | 5.66 | –
O=C(O)c1cc(S(=O)(=O)NCCCN2CCCC2=O)ccc1Cl [CA230] | 4.86 | 3.56 | –
O=C(O)c1ccc(OCn2cc(Cl)cn2)cc1 [CA231] | 5.6 | 6.49 | –
O=C(O)Cc1cnn(-c2ccccc2)c1 [CA232] | 1.32 | 8.28 | –
CC(C)c1nc(Cn2cc(C(=O)O)ccc2=O)cs1 [CA233] | 1.25 | 15 | –
CCS(=O)(=O)N1CCC(C(=O)O)(c2ccccc2)CC1 [CA234] | 19.5 | 0.71 | –
O=C(O)c1ccc(CNS(=O)(=O)c2ccc(F)c(F)c2F)cc1 [CA235] | 13.6 | 1.22 | –
O=C(O)c1csc(C2CC2)n1 [CA236] | 9.58 | 1.88 | –
CC1CCCC(N2CC(C(=O)O)CC2=O)C1C (centres unmarked) [CA237] | 7.37 | -3.69 | –
O=C(O)c1csc(-c2cnc[nH]2)n1 [CA238] | 6.66 | -0.05 | –
Cc1cc(C(=O)O)c(C)n1C1CC1 [CA239] | 7.06 | 5.98 | –
O=C(O)c1cnn(-c2cccc(Br)c2)c1 [CA240] | 7.83 | 6.83 | –
CN(CC(=O)N1CCCC(C(=O)O)C1)c1ccc(Cl)cn1 (centres unmarked) [CA241] | 5.13 | 1.85 | –
O=C(O)C1CCN(C(=O)c2ccccn2)CC1 [CA242] | 6.36 | 2.43 | –
O=C(O)c1ccc(Cn2cncn2)cc1 [CA243] | 6.44 | 2.23 | –
O=C(O)c1cc(Cl)nc(N2CCCC2)c1 [CA244] | 9.03 | 3.68 | –
Cc1nc(-c2c[nH]c(C(=O)O)c2)cs1 [CA245] | 19.9 | 52.7 | could inhibit mUSP18

Compound | inhibition at 1.25 µM [1] [%] | inhibition at 1.25 µM [2] [%] | inhibition of mUSP18 by individual CA's and coupling reagents (screened with and without DIC/HOBt)
O=C(O)Cc1ccn(-c2ccccc2)n1 [CA246] | 4.69 | 5.35 | –
O=C(O)C1CC(=O)N(C2CCCCCC2)C1 (centres unmarked) [CA247] | 2.25 | 4.63 | –
O=C(O)c1cc(C2CCCCC2)[nH]n1 [CA248] | 1.65 | 7.2 | –
Cc1ccc(-c2cc(C(=O)O)n[nH]2)s1 [CA249] | 4.85 | 6.81 | –
O=C(O)c1ccc(-c2ccccc2)o1 [CA250] | 3.02 | 5.27 | –
O=C(O)c1cccnc1N1CCCCC1 [CA251] | -0.46 | 6 | –
O=C(O)C1=NNC(=O)C1c1ccccc1 (centres unmarked) [CA252] | 3.55 | 10.3 | –
Cc1nn(-c2ccc(C(F)(F)F)cn2)c(C)c1CC(=O)O [CA253] | 3.16 | 9.05 | –
Cc1ccc(N2CCCC(C(=O)O)C2)nc1 (centres unmarked) [CA254] | -2.11 | 7.64 | –
O=C(O)c1ccc(-c2cnco2)cc1 [CA255] | 0.58 | 7.03 | –
Cn1nc(C(=O)O)cc1-c1cccnc1 [CA256] | -0.67 | 11.7 | –
Cc1cc(COc2ccc(C(=O)O)cc2Br)no1 [CA257] | 1.45 | 15.8 | –
O=C(O)C1CN(S(=O)(=O)C2CC2)C1 [CA258] | 20.5 | 2.25 | –
COc1ccc(C(=O)O)cc1S(=O)(=O)NCCc1ccccn1 [CA259] | 13.5 | 2.38 | –
Cc1onc(-c2ccccn2)c1C(=O)O [CA260] | 12.1 | 1.48 | –
O=C(O)C(=O)N1CCN(c2ccccc2)CC1 [CA261] | 10.4 | 2.36 | –
O=C(O)C(F)(F)n1cc(-c2ccccc2)nn1 [CA262] | 8.22 | 3.17 | –
O=C(O)C1Cc2ccccc21 (centres unmarked) [CA263] | 9.79 | 2.89 | –
O=C(O)c1ccnc(N2CCOCC2)n1 [CA264] | 8.23 | 4.28 | –
O=C(O)C1COCCN1C(=O)OCc1ccccc1 (centres unmarked) [CA265] | 7.65 | 3.99 | –
O=C(O)c1cncc(N2CCCC2)n1 [CA266] | 8.54 | 4.99 | –
CN(Cc1ccccc1)S(=O)(=O)c1ccc(C(=O)O)cc1 [CA267] | 9.75 | 5.3 | –
Cn1nc(-c2cccnc2)cc1C(=O)O [CA268] | 8.72 | 3.94 | –
O=C(O)c1cnoc1-c1ccccc1C(F)(F)F [CA269] | 6.72 | 5.54 | –
O=C(O)c1cn(CC2CCCO2)nn1 (centres unmarked) [CA270] | 7.51 | 8.31 | –
Cn1cc(-c2cc[nH]n2)c(C(=O)O)n1 [CA271] | 1 | 7 | –
